Where only a bound is given, the exact number is not on record here.

Our source for the IC50 values is US20230219978A1, “COMPOUND HAVING MACROCYCLIC STRUCTURE AND USE THEREOF” (SCINNOHUB PHARMACEUTICAL CO., LTD, priority 2020, published 2023).

Common to all, as to assay type: biochemical
One test deals with T1, RET wt (Homo sapiens, UniProt P07949).
T1 construct: purchased Carna 08-159
The test is described as follows: In vitro kinase activity assay (mobility shift assay), RET wild type. The note with it: ATP 16 μM, reaction time 60 min. As for the experimental part: (§1) The IC50 (half inhibitory concentration) values of the compounds were used as an indicator to evaluate the inhibitory effect of the compound on RET wild-type, RET mutant, TRKa, SRC, BTK and/or mutated BTK kinase.
(§2) Using the method of Mobility shift assay, the compounds were tested for inhibitory activity against the following kinases: RET wild type, RET mutant, TRKa, SRC, BTK and/or mutated BTK. The initial concentration of the test compound was 1000 nM, 3-fold dilution, 10 concentrations, detected in a well for each concentration.
(§3) 20 mM hydroxyethylpiperazineethanesulfonic acid (Hepes) (pH 7.5) buffer, 10 mM MgCl2, 1 mM ethylene glycol bis(aminoethyl ether)tetraacetic acid (EGTA), 0.02% polyoxyethylene lauryl ether (Brij35), 0.02 mg/ml […] (BSA), 0.1 mM Na3VO4, 2 mM dithiothreitol (DTT), 1% DMSO.
(§4) The test compounds were dissolved in 100% dimethyl sulfoxide (DMSO) system, and prepared as 10 mM for use, and stored in a nitrogen cabinet away from light.
(§5) • (1) Preparing 1× kinase reaction buffer. • (2) Preparation of compound concentration gradient: the initial concentration of the compounds was 1000 nM, which was diluted as 100-fold final concentration of solution in 100% dimethyl sulfoxide (DMSO) in a 384-well plate. The compound was accurately 3-fold diluted with the kinase buffer solution, 10 concentrations in total, and the final concentration was 0.0508 nM. The 100-fold final concentration of solution in 100% dimethyl sulfoxide (DMSO) was obtained by dilution in 384 source plate. The liquid separator Echo 550 was used to transfer 250 nl of 100-fold final concentration of compound to the target 384 well plate. 250 nl of DMSO was added to the positive and negative control wells. • (3) 2.5-fold final concentration of kinase solution was prepared by the 1× kinase buffer. • (4) 10 4, of 2.5-fold final concentration of kinase solution was added to the compound well and the positive control well, respectively; 10 4, of 1× kinase buffer was added to the negative control well. • (5) After centrifuging at 1000 rpm for 30 second, the reaction plate was shaken and mixed, followed by incubation at room temperature for 10 min. • (6) a mixed solution of 25/15-fold final concentration of adenosine triphosphate (ATP) and kinase substrate was prepared by 1× kinase buffer. • (7) The mixed solution (15 μL) of 25/15-fold final concentration of adenosine triphosphate (ATP) and substrate was added to initiate the reaction. • (8) 384-well plate was centrifuged at 1000 rpm for 30 second, shaken and mixed well, and then incubated at room temperature for 30-240 min. • (9) After stopping the kinase reaction, the plate was centrifugated at 1000 rpm for 30 second, shaken and mixed well. • (10)The conversion rate was read with Caliper EZ Reader.
(§6) wherein Conversion%_sample is the conversion rate reading of the sample; Conversion%_min: the mean value of negative control wells, representing the conversion rate reading of wells without enzymes; Conversion%_max: the mean value of positive control wells, representing the conversion rate reading of wells without compound inhibition.
(§7) The log value of concentration was taken as the X axis, and the percentage inhibition rate was taken as the Y axis. Graphpad 6.0 analysis software was used to fit the dose-response curve, so as to obtain the IC50 value of each compound on the enzyme activity

For the next test, the target named is T2, RET G810R (Homo sapiens, UniProt P07949, G810R).
T2 construct: purchased Proqinase 1724-0000-1
T2 sequence (P07949 29-1114 G810R): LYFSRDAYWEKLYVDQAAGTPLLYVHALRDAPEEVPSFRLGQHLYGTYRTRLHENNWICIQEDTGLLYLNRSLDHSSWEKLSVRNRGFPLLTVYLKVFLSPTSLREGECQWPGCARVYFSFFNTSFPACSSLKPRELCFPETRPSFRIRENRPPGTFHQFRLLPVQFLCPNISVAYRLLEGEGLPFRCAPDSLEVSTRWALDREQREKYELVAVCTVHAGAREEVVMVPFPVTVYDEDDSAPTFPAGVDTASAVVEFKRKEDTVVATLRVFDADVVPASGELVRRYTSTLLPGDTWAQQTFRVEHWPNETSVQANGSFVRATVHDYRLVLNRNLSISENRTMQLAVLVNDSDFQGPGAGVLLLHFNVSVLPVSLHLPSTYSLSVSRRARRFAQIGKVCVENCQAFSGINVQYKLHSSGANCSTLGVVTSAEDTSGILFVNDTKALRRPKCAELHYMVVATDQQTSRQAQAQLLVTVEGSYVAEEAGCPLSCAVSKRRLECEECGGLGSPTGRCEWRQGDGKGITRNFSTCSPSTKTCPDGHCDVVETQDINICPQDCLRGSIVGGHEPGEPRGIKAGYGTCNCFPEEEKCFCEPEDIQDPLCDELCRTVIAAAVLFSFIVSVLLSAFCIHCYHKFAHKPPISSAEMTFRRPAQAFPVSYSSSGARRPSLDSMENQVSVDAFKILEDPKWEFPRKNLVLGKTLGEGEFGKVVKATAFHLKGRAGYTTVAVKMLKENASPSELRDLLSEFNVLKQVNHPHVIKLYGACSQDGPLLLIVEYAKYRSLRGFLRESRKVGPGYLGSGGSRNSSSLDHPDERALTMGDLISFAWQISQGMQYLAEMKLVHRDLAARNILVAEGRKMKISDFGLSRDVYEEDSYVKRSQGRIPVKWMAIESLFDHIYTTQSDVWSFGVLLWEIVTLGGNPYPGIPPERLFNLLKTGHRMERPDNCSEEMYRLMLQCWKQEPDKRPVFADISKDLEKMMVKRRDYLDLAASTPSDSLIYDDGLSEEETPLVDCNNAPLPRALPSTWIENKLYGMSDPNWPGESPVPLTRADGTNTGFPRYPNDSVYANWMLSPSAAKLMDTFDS
Briefly: In vitro kinase activity assay (mobility shift assay), RET G810R. The note with it: ATP 201 μM, reaction time 4 h. As for the experimental part: as §1, §2, §3, §4, §5, §6, §7

The next test addresses T3, RET V804M (Homo sapiens, UniProt P07949, V804M).
T3 construct: purchased signalchem R02-12GG
The test is described as follows: In vitro kinase activity assay (mobility shift assay), RET V804M. The note with it: ATP 5.4 μM, reaction time 60 min. The method, then:
as §1, §2, §3, §4, §5, §6, §7

T1 sequence (P07949 29-1114): as the sequence (P07949 29-1114 G810R) above, with R782G counted along it
T3 sequence (P07949 29-1114 V804M): as the sequence (P07949 29-1114 G810R) above, with V776M, R782G counted along it

For `CNC(=O)Nc1ccc(-c2cn3ncc4c3nc2NCc2cc(F)cnc2O[C@@H](C)CNC4=O)cc1` [Compound 32, 1-(4-((S, 1^3E, 1^4E)-4^5-fluoro-6-methyl-9-oxo-5-oxa-2,8-diaza-1(5,3)-pyrazolo[1,5-a]pyrimidin-4(3,2)-pyridinacyclononaphan-1^6-yl)phenyl)-3-methylurea], the IC50 (commonly the concentration that gives 50% inhibition) amounted to 14.2 nM on RET wt, 98.2 nM at RET G810R and 59 nM at RET V804M.
In the case of `C[C@H]1CNC(=O)c2cnn3cc(-c4ccc5[nH]ccc5c4Cl)c(nc23)NCc2cc(F)cnc2O1` [Compound 34, (S, 1^3E, 1^4E)-1^6-(4-chloro-1H-indo1-5-yl)-4^5-fluoro-6-methyl-5-oxo-2,8-diaza-1(5,3)-pyrazolo[1,5-a]pyrimidin-4(3,2)-pyridinacyclononaphan-9-one], the figures for the IC50 at RET wt and on RET G810R were 5.4 nM and 377 nM, respectively.
In the case of `CNC(=O)Nc1ccc(-c2cn3ncc4c3nc2NCc2cc(F)cnc2O[C@@H](C)CNC4=O)c(Cl)c1` [Compound 35, 1-(3-chloro-4-((S, 1^3E, 1^4E)-4^5-fluoro-6-methyl-9-oxo-5-oxo-2,8-diaza-1(5,3)-pyrazolo[1,5-a]pyrimidin-4(3,2)-pyridinacyclononaphan-1^6-yl)phenyl)-3-methylurea], the IC50 on RET wt was determined as 1.9 nM; on RET G810R it was 197 nM.
The corresponding values for `C[C@H]1CNC(=O)c2cnn3cc(-c4ccc(N)cc4)c(nc23)NCc2cc(F)cnc2O1` [Compound 36, (S, 1^3E, 1^4E)-1^6-(4-aminophenyl)-4^5-fluoro-6-methyl-5-oxo-2,8-diaza-1(5,3)-pyrazolo[1,5-a]pyrimidin-4(3,2)-pyridinacyclononaphan-9-one] are 27 nM and above 1000 nM.
Consider `C[C@H]1CNC(=O)c2cnn3cc(-c4cn[nH]c4)c(nc23)NCc2cc(F)cnc2O1` [Compound 37, (S, 1^3E, 1^4E)-4^5-fluoro-6-methyl-1^6-(1H-pyrazol-4-yl)-5-oxa-2,8-diaza-1(5,3)-pyrazolo[1,5-a]pyrimidin-4(3,2)-pyridinacyclononaphan-9-one], for which the IC50 at RET wt was 95 nM; on RET G810R it was above 1000 nM.
The corresponding values for `CNc1ccc(-c2cn3ncc4c3nc2NCc2cc(F)cnc2O[C@@H](C)CNC4=O)c(Cl)c1` [Compound 39, (S, 1^3E, 1^4E)-1^6-(4-methylamino-2-chlorophenyl)-4^5-fluoro-6-methyl-5-oxa-2,8-diaza-1(5,3)-pyrazolo[1,5-a]pyrimidina-4(3,2)-pyridinacyclononaphan-9-one] are 3 nM and 376 nM.
As for `C[C@H]1CNC(=O)c2cnn3cc(-c4ccc(Nc5ncco5)cc4)c(nc23)NCc2cc(F)cnc2O1` [Compound 42, (S, 1^3E, 1^4E)-4^5-fluoro-6-methyl-1^6-(4-(oxazol-2-amino)phenyl)-5-oxa-2,8-diaza-1(5,3)-pyrazolo[1,5-a] pyrimidin-4(3,2)-pyridinacyclononaphan-9-one], the IC50 at RET wt, at RET G810R and on RET V804M was above 1000 nM each time.
For the compound `C[C@H]1CNC(=O)c2cnn3cc(-c4ccc(NS(C)(=O)=O)cc4Cl)c(nc23)NCc2cc(F)cnc2O1` [Compound 44], the IC50 is 286 nM at RET wt and above 1000 nM on RET G810R.
The corresponding values for `C[C@H]1CNC(=O)c2cnn3cc(-c4ccc(NC(=O)OCC5CC5)cc4Cl)c(nc23)NCc2cc(F)cnc2O1` [Compound 46, cyclopropylmethyl (3-chloro-4-((S, 1^3E, 1^4E)-4^5-fluoro-6-methyl-9-oxo-5-oxadiaza-2,8-1(5,3)-pyrazolo[1,5-a]pyrimidin-4(3,2)-pyridinacyclononaphan-1^6-yl)phenyl)carbamate] are 5.1 nM and 96.9 nM.
Consider `C[C@H]1CNC(=O)c2cnn3cc(-c4ccccc4)c(nc23)NCc2cc(Cl)cnc2O1` [Compound 47, (S, 1^3E, 1^4E)-4^5-chloro-6-methyl-1^6-phenyl-5-oxa-2,8-diaza-1(5,3)-pyrazolo[1,5-a]pyrimidina-4(3,2)-pyridinacyclononaphan-9-one], for which the results for the IC50 at RET wt, at RET G810R and on RET V804M were 26 nM, above 1000 nM and above 1000 nM, respectively.
Turning to `C[C@H]1CNC(=O)c2cnn3cc(-c4ccccc4)c(nc23)NCc2cc(Nc3ccccn3)cnc2O1` [Compound 48, (S, 1^3E, 1^4E)-6-methyl-1^6-phenyl-4^5-(pyridin-2-ylamino)-5-oxa-2,8-diaza-1(5,3)-pyrazolo[1,5-a]pyrimidina-4(3,2)-pyridinacyclononaphan-9-one], the 50% inhibitory concentration (IC50) on RET wt, at RET G810R and on RET V804M was above 1000 nM throughout.
As for `C[C@H]1CNC(=O)c2cnn3c(N)c(-c4ccc5nc[nH]c5c4)c(nc23)NCc2cc(F)cnc2O1` [Compound 52, (S, 1^3E, 1^4E)-1^7-amino-1 ^6-(1H-benzo [d]imidazol-6-yl)-4^5-fluoro-6-methyl-5-oxo-2,8-diaza-1(5,3)-pyrazolo[1,5-a]pyrimidin-4(3,2)-pyridinacyclononaphan-9-one], the IC50 at RET wt was 5.4 nM; at RET G810R, 588 nM.
Take `CNC(=O)Nc1ccc(-c2c3nc4c(cnn4c2N)C(=O)NC[C@H](C)Oc2ncc(F)cc2CN3)cc1` [Example 55, 1-(4-((S, 1^3E, 1^4E)-1^7-amino-4^5-fluoro-6-methyl-9-oxo-5-oxo-2,8-diaza-1(5,3)-pyrazolo[1,5-a]pyrimidin-4(3,2)-pyridinacyclononaphan-1^6-yl)phenyl)-3-methylurea]: the IC50 turned out to be 1.1 nM on RET wt and 84.3 nM at RET G810R.
As to `CC(C)Nc1ccc(-c2c3nc4c(cnn4c2N)C(=O)NC[C@H](C)Oc2ncc(F)cc2CN3)cc1` [Example 57, (S, 1^3E, 1^4E)-1^7-amino-4^5-fluoro-1^6-(4-(isopropylamino)phenyl)-6-methyl-5-oxo-2,8-diaza-1(5,3)-pyrazolo[1,5-a]pyrimidin-4(3,2)-pyridinacyclononaphan-9-one], the IC50 is 47 nM on RET wt and above 1000 nM on RET G810R.
The corresponding values for `C[C@H]1CNC(=O)c2cnn3c(N)c(-c4ccc(N(C)C)cc4)c(nc23)NCc2cc(F)cnc2O1` [Example 58, (S, 1^3E, 1^4E)-1^7-amino-1^6-(4-(dimethylamino)phenyl)-4^5-fluoro-6-methyl-5-oxo-2,8-diaza-1(5,3)-pyrazolo[1,5-a]pyrimidin-4(3,2)-pyridinacyclononaphan-9-one] are 3.4 nM and 155 nM.
For the compound `COc1ccc(-c2c3nc4c(cnn4c2N)C(=O)NC[C@H](C)Oc2ncc(F)cc2CN3)cc1` [Example 59, (S, 1^3E, 1^4E)-1^7-amino-4^5-fluoro-1^6-(4-methoxyphenyl)-6-methyl-5-oxo-2,8-diaza-1(5,3)-pyrazolo[1,5-a]pyrimidin-4(3,2)-pyridinacyclononaphan-9-one], the IC50 on RET wt is 2.4 nM; at RET G810R, 130 nM; at RET V804M, 38 nM.
As to `CC(C)OC(=O)Nc1ccc(-c2c3nc4c(cnn4c2N)C(=O)NC[C@H](C)Oc2ncc(F)cc2CN3)cc1` [Example 61, iso-propyl (4-((S, 1^3E, 1^4E)-1^7-amino-4^5-fluoro-6-methyl-9-oxo-5-oxa-2,8-diaza-1(5,3)-pyrazolino[1,5-a]pyrimidin-4(3,2)-pyridinacyclononaphan-1^6-yl)-phenyl)carbamate], the IC50 was determined as 1 nM on RET wt and 21.8 nM on RET G810R.
`CCOC(=O)Nc1ccc(-c2c3nc4c(cnn4c2N)C(=O)NC[C@H](C)Oc2ncc(F)cc2CN3)cc1` [Example 62, ethyl (4-((S, 1^3E, 1^4E)-1^7-amino-4^5-fluoro-6-methyl-9-oxo-5-oxa-2,8-diaza-1(5,3)-pyrazolino [1,5-a]pyrimidin-4(3,2)-pyridinacyclononaphan-1^6-yl)-phenyl)carbamate]: the IC50 on RET wt turned out to be 0.26 nM; at RET G810R it was 15 nM; on RET V804M it was 0.94 nM.
